Ki, Ratio Ki and inhibition data for 24 compounds are collected here from ChEMBL document CHEMBL4257492, “Discovery of 2-aminoimidazole and 2-amino imidazolyl-thiazoles as non-xanthine human adenosine A3 receptor antagonists: SAR and molecular modeling studies” (Medchemcomm, 2018).

One assay concerns the target T1, Adenosine receptor A1 (Homo sapiens, UniProt P30542).
T1 sequence (P30542 whole entry): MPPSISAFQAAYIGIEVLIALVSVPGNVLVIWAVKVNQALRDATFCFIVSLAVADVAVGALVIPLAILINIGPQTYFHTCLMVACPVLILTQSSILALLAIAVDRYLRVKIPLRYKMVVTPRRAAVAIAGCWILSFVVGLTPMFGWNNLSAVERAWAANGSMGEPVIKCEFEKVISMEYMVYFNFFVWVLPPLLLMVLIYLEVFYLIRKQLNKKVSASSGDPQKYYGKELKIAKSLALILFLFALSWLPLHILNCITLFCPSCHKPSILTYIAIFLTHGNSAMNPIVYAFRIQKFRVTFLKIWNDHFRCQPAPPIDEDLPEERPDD
Briefly: (§1) Displacement of [3H]CCPA from recombinant human A1 receptor expressed in CHO cell membranes.

The next assay has as its target T2, Adenosine receptor A3 (Homo sapiens, UniProt P0DMS8).
T2 sequence (P0DMS8 whole entry): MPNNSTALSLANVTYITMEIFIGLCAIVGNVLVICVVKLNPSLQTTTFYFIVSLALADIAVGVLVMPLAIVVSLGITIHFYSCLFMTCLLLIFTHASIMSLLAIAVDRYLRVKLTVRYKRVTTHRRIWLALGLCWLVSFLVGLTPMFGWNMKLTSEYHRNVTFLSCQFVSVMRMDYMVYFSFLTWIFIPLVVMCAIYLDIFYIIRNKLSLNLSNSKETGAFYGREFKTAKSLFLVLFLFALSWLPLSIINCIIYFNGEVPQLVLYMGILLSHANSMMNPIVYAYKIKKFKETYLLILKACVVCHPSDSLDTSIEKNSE
The assay can be described thus: (§2) Displacement of [3H]HEMADO from recombinant human A3 receptor expressed in CHO cell membranes. Background: Loss of bound radioactivity is the signal in a displacement assay; it reports binding, not function.

In the next assay the target is Adenosine receptor A2a (Homo sapiens, UniProt P29274). The assay can be described thus: Displacement of [3H]NECA from recombinant human A2A receptor expressed in CHO cell membranes.
Chain of Adenosine receptor A2a (P29274 whole entry): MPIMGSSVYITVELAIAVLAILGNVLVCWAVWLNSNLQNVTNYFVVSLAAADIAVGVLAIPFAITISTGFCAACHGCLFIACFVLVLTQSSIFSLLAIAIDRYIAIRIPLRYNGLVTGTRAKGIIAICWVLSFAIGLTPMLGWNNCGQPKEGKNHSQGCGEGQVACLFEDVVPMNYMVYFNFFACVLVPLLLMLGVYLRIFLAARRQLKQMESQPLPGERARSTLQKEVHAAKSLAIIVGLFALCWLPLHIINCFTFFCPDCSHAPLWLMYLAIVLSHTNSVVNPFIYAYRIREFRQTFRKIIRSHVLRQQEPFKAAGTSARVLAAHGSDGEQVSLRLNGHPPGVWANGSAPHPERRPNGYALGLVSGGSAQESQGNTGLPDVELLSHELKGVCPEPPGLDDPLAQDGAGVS
The target in the next assay is T3, Adenosine receptor A2b (Homo sapiens, UniProt P29275).
T3 sequence (P29275 whole entry): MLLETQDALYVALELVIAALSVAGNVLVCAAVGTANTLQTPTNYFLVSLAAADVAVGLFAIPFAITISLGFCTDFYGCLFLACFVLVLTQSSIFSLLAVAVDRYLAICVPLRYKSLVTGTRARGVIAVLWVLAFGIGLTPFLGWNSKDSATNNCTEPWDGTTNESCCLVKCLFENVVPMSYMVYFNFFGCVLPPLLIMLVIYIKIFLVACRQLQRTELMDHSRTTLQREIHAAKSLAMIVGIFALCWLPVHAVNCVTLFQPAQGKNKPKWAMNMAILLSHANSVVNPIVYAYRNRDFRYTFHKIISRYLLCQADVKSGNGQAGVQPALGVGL
Briefly: Antagonist activity at recombinant human A2B receptor expressed in CHO cell membranes assessed as inhibition of NECA-stimulated adenylyl cyclase activity. Format: functional, cell-based.

For assay [1], the species on record is Homo sapiens. Briefly: Selectivity ratio of Ki for displacement of [3H]CCPA from recombinant human A1 receptor expressed in CHO cell membranes to displacement of [3H]HEMADO from recombinant human A3 receptor expressed in CHO cell membranes.
The species entered for assay [2] is Homo sapiens. Briefly: Selectivity ratio of Ki for displacement of [3H]NECA from recombinant human A2A receptor expressed in CHO cell membranes to displacement of [3H]HEMADO from recombinant human A3 receptor expressed in CHO cell membranes.
Assay [3] concerns the target T4, Adenosine receptor A1 (Homo sapiens) (UniProt P30542).
T4 sequence (whole entry): T1 sequence (P30542 whole entry)
Described as §1.

For assay [4], the target named is T5, Adenosine receptor A2b (Homo sapiens) (UniProt P29275).
T5 sequence (whole entry): T3 sequence (P29275 whole entry)
Briefly: Antagonist activity at recombinant human A2B receptor expressed in CHO cell membranes assessed as inhibition of NECA-stimulated adenylyl cyclase activity up to 30 uM. Format: functional, cell-based.

The target of assay [5] is T6, Adenosine receptor A3 (Homo sapiens) (UniProt P0DMS8).
T6 sequence (whole entry): T2 sequence (P0DMS8 whole entry)
The description is as §2.

SMILES strings stand for the structures. Calls of active or inactive are those of the source. The rule behind the calls is not given here.

By Ki is commonly meant the equilibrium dissociation constant of an inhibitor or competing ligand from its target. As to `CN(C)c1nc(NC(=O)c2ccccc2)sc1C(=O)c1cnc(N)n1-c1ccc(C(F)(F)F)cc1`, the Ki on Adenosine receptor A1 was 19.7 µM; on Adenosine receptor A3 it was 4.92 µM; on Adenosine receptor A2a it was 16.7 µM; at Adenosine receptor A2b, above 10 µM.

As for `Cc1nc(Nc2ccccc2)sc1C(=O)c1cnc(N)n1-c1ccc(F)cc1`, the Ki at Adenosine receptor A1 was 39.2 µM; on Adenosine receptor A3 it was 0.19 µM; on Adenosine receptor A2a, 8.04 µM; at Adenosine receptor A2b, above 10 µM. The Ratio Ki in the assay filed under Homo sapiens [1] was 200; in the assay listed under Homo sapiens [2] it was 40.

`Cc1ccc(-n2c(C(=O)c3sc(N4CCOCC4)nc3-c3ccccc3)cnc2N)cc1`: the Ki is above 100 µM at Adenosine receptor A1, 17.8 µM on Adenosine receptor A3, 34 µM at Adenosine receptor A2a and above 10 µM on Adenosine receptor A2b.

Consider `COc1ccc(-n2c(C(=O)c3sc(N4CCOCC4)nc3-c3ccccc3)cnc2N)cc1`, for which the Ki at Adenosine receptor A1 is above 100 µM; at Adenosine receptor A3, 13 µM; on Adenosine receptor A2a it was above 100 µM; at Adenosine receptor A2b, above 10 µM.

With `Nc1ncc(C(=O)c2ccc(Cl)cc2)n1-c1ccc(F)c(Cl)c1`, the inhibition entry in [3] and in assay [4] was “inactive” in each case. In addition, in [5], the inhibition entry is “Active”.

In the case of `Cc1ccc(Nc2nc(C)c(C(=O)c3cnc(N)n3-c3ccc(F)cc3)s2)cc1`, the Ki is 37.5 µM at Adenosine receptor A1, 0.487 µM at Adenosine receptor A3, 12.4 µM at Adenosine receptor A2a and above 10 µM on Adenosine receptor A2b. The Ratio Ki in the assay filed under Homo sapiens [1] and in the assay listed under Homo sapiens [2] was 20 to 40 throughout.

Regarding `CN(C)c1nc(NC(=O)c2ccccc2)sc1C(=O)c1cnc(N)n1-c1ccc(Cl)cc1`, the Ki at Adenosine receptor A1 was 25.4 µM; at Adenosine receptor A3 it was 4.32 µM; on Adenosine receptor A2a, 11.8 µM; at Adenosine receptor A2b, above 10 µM.

Turning to `Nc1ncc(C(=O)c2ccc(Cl)cc2)n1-c1ccc(C(F)(F)F)cc1`, the inhibition entry in [3] and in [4] was “inactive” in each case. Moreover, in [5], the inhibition entry was “Active”.

`Cc1nc(Nc2ccccc2)sc1C(=O)c1cnc(N)n1-c1ccc(Cl)cc1`: the Ki was 33.5 µM on Adenosine receptor A1, 0.802 µM at Adenosine receptor A3, 11.2 µM at Adenosine receptor A2a and above 10 µM on Adenosine receptor A2b.

On to `CS(=O)(=O)c1ccc(C(=O)c2cnc(N)n2-c2ccccc2)cc1`, for which the inhibition result in assay [3] and in [4] was “inactive” each time. Moreover, the inhibition entry in assay [5] is “Active”.

As to `Nc1ncc(C(=O)c2ccc(Cl)cc2)n1-c1ccc(F)cc1`, the inhibition result in assay [3], in [4] and in assay [5] was “inactive” throughout.

For the compound `Cc1ccc(C(=O)c2cnc(N)n2-c2cccc(Cl)c2)cc1`, the inhibition entry in assay [3] and in assay [4] was “inactive” throughout. The inhibition entry in assay [5] was “Active”.

Turning to `Nc1ncc(C(=O)c2sc(Nc3ccccc3)nc2-c2ccccc2)n1-c1ccc(F)cc1`, the Ki on Adenosine receptor A1 is 6.71 µM; on Adenosine receptor A3 it was 0.305 µM; at Adenosine receptor A2a, 7.41 µM; at Adenosine receptor A2b it was above 10 µM. Moreover, the Ratio Ki in the assay listed under Homo sapiens [1] and in the assay filed under Homo sapiens [2] was 20 to 40 in each case.

On to `Cc1ccc(C(=O)c2cnc(N)n2-c2ccccc2Cl)cc1`, for which the inhibition entry in [3] and in [4] was “inactive” each time. For the same compound, the inhibition result in [5] was “Active”.

For `Nc1ncc(C(=O)c2ccncc2)n1-c1ccc(F)cc1`, the inhibition result in assay [3] and in assay [4] was “inactive” each time.

`Cc1ccc(C(=O)c2cnc(N)n2-c2ccc(F)cc2)cc1`: the inhibition entry in assay [3], in assay [4] and in assay [5] was “inactive” in each case.

As to `COc1ccc(-n2c(C(=O)c3sc(Nc4ccccc4)nc3C)cnc2N)cc1`, the Ki on Adenosine receptor A1 is 48.6 µM; at Adenosine receptor A3 it was 0.574 µM; on Adenosine receptor A2a, 13.4 µM; at Adenosine receptor A2b it was above 10 µM. Also, the Ratio Ki in the assay filed under Homo sapiens [1] and in the assay filed under Homo sapiens [2] was 20 to 40 each time.

Regarding `Cc1nc(Nc2ccc(Cl)cc2)sc1C(=O)c1cnc(N)n1-c1ccc(F)cc1`, the Ki on Adenosine receptor A1 is 19.8 µM; on Adenosine receptor A3 it was 0.871 µM; at Adenosine receptor A2a, 13 µM; on Adenosine receptor A2b, above 10 µM.

As to `COc1ccc(-n2c(C(=O)c3sc(Nc4ccc(Cl)cc4)nc3C)cnc2N)cc1`, the Ki on Adenosine receptor A1 was 33.3 µM; on Adenosine receptor A3 it was 1.6 µM; at Adenosine receptor A2a it was 10.3 µM; on Adenosine receptor A2b, above 10 µM.

Take `Cc1ccc(C(=O)c2cnc(N)n2-c2ccc(Cl)cc2)cc1`: the inhibition entry in assay [3], in [4] and in assay [5] was “inactive” in each case.

Consider `Nc1ncc(C(=O)c2ccncc2)n1-c1ccc(Cl)cc1`, for which the inhibition result in assay [3] and in assay [4] was “inactive” throughout. Further, the inhibition entry in [5] was “Active”.

Turning to `COc1ccc(C(=O)c2cnc(N)n2-c2ccc(F)cc2)cc1`, the inhibition entry in assay [3], in assay [4] and in assay [5] was “inactive” throughout.

As for `Nc1ncc(C(=O)c2ccncc2)n1-c1ccc(C(F)(F)F)cc1`, the inhibition result in assay [3] and in assay [4] was “inactive” throughout.

As to `COc1ccc(-n2c(C(=O)c3sc(Nc4ccccc4)nc3-c3ccccc3)cnc2N)cc1`, the Ki at Adenosine receptor A1 was 3.67 µM; at Adenosine receptor A3, 0.326 µM; at Adenosine receptor A2a, 8.84 µM; on Adenosine receptor A2b it was above 10 µM.
